One block for each compound: values may come before it.
Experiments:
[1] = biological target: Transient receptor potential cation channel subfamily M member 6 (Homo sapiens) (UniProt Q9BX84); test: Selectivity interaction (Ambit KINOMEscan and KiNATiv profiling in Jurkat cells) EUB0000090b TRPM6; type: cell-based; conditions: at 1 µM
[2] = biological target: Neuropeptide Y receptor type 1 (Homo sapiens, UniProt P25929); test: Selectivity interaction (Neuropeptide Y Y1 receptor binding assay, human recombinant ) EUB0000877a NPY1R
Neuropeptide Y receptor type 1, sequence (P25929 whole entry): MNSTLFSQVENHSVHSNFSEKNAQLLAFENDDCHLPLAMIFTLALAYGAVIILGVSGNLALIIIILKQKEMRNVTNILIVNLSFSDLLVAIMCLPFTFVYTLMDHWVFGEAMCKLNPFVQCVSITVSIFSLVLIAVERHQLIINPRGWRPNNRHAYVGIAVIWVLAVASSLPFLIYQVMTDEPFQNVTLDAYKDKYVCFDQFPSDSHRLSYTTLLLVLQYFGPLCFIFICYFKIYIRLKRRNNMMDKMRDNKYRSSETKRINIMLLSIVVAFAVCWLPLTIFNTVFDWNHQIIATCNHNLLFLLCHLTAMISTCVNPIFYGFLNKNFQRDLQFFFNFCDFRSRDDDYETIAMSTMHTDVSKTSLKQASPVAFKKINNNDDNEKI

[3] = biological target: T1, Rhodopsin kinase GRK7 (Homo sapiens) (UniProt Q8WTQ7); test: Selectivity interaction (Kinase panel (Z-LYTE Assay)) EUB0001632a GRK7; conditions: at 10 µM
T1 sequence (whole entry): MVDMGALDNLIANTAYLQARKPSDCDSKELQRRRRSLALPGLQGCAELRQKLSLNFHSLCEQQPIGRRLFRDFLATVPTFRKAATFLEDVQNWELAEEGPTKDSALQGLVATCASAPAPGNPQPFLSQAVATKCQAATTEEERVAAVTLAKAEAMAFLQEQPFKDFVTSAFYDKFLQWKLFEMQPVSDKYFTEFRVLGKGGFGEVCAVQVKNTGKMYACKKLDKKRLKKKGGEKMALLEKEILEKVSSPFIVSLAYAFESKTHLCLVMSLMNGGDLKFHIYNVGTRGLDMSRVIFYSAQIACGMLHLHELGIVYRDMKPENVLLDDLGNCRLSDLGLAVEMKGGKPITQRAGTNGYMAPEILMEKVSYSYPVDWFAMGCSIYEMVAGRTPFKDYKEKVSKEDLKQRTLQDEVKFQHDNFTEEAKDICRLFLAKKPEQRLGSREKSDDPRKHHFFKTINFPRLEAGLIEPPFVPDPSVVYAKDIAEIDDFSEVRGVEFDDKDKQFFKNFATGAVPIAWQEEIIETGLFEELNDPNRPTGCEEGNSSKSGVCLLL

[4] = biological target: T2, Serine/threonine-protein kinase D2 (Homo sapiens) (UniProt Q9BZL6); conditions: at 10 µM
T2 sequence (whole entry): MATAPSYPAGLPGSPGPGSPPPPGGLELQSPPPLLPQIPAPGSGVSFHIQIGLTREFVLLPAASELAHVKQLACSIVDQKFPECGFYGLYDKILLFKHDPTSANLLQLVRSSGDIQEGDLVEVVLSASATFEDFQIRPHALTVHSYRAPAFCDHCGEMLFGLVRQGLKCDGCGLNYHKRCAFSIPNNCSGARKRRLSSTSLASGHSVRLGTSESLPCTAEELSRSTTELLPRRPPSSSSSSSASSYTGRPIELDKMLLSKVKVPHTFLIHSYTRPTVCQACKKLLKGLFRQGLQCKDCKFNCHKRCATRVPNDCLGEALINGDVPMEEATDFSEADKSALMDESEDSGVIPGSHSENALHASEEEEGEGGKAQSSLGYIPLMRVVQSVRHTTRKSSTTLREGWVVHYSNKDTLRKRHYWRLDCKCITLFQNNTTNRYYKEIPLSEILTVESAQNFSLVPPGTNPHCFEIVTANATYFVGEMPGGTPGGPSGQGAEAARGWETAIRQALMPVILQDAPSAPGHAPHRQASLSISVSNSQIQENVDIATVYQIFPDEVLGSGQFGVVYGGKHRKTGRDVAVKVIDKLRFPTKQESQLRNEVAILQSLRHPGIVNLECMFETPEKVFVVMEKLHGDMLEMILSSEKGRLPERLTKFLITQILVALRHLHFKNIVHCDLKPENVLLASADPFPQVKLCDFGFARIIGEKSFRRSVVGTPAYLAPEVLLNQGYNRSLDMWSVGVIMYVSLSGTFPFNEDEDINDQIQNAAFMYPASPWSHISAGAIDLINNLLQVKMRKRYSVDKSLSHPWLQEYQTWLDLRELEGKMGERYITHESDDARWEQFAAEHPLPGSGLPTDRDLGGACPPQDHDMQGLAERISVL

[5] = biological target: Dual specificity testis-specific protein kinase 1 (Homo sapiens) (UniProt Q15569); test: Selectivity interaction (KinomeScan (DiscoverX)) EUB0001079a TESK1; conditions: at 1 µM
Dual specificity testis-specific protein kinase 1 (Homo sapiens), sequence (Q15569 whole entry, looked up, canonical isoform): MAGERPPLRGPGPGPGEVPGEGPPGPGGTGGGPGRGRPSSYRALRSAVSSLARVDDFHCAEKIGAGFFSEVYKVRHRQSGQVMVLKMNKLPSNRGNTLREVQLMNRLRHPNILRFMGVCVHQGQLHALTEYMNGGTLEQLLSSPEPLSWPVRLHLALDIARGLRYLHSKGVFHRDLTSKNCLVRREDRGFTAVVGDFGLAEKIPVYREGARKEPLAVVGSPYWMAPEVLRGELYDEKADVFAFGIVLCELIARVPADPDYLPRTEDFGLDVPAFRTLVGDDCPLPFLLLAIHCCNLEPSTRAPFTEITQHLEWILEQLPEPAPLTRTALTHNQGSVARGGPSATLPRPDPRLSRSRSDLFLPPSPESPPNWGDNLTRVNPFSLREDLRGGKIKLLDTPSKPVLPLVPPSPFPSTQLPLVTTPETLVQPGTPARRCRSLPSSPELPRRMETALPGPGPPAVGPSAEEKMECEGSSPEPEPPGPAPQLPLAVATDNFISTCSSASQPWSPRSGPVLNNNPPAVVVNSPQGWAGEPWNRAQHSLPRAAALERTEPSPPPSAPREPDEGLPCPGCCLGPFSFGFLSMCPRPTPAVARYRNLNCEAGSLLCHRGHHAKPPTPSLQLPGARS

[6] = biological target: Phosphatidylinositol 4,5-bisphosphate 3-kinase catalytic subunit gamma isoform (Homo sapiens) (UniProt P48736); test: Selectivity interaction (KinomeScan (DiscoverX)) EUB0001079a PIK3CG; conditions: at 1 µM
Phosphatidylinositol 4,5-bisphosphate 3-kinase catalytic subunit gamma isoform (Homo sapiens), sequence (P48736 whole entry, looked up, canonical isoform): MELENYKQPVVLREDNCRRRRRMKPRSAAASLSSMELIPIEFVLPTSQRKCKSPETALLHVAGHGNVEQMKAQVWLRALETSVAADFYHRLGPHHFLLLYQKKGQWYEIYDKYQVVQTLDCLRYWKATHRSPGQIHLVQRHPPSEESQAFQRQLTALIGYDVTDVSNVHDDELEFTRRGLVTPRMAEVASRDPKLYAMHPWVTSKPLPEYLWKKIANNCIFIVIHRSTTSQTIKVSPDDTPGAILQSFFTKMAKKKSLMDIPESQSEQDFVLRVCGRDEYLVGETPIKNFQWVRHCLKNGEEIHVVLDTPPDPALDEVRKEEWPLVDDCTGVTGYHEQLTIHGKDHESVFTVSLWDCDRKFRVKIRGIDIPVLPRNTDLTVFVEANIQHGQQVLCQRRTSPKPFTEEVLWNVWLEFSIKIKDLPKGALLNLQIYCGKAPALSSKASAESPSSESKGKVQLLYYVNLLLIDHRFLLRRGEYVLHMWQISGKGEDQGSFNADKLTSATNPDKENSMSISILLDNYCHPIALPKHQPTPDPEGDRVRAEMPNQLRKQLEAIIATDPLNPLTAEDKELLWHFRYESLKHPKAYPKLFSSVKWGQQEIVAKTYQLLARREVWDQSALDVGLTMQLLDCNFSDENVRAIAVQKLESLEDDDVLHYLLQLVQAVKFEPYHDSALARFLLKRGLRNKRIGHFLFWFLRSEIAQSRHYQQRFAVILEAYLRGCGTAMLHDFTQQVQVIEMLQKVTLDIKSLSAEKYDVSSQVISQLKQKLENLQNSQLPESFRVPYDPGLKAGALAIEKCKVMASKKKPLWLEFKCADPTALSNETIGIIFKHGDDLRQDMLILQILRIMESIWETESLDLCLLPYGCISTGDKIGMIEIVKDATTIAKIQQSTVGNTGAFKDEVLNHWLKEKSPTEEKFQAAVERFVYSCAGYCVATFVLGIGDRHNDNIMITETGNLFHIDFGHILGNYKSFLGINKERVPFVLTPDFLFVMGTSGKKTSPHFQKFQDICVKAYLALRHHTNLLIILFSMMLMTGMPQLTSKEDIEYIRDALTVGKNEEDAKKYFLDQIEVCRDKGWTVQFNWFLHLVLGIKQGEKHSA

[7] = biological target: Serine/threonine-protein kinase mTOR (Homo sapiens, UniProt P42345); test: Selectivity interaction (KinomeScan (DiscoverX)) EUB0000655a MTOR; conditions: at 10 µM
[8] = biological target: T3, Homeodomain-interacting protein kinase 4 (Homo sapiens) (UniProt Q8NE63); test: Selectivity interaction (KinomeScan (DiscoverX)) EUB0000655a HIPK4; conditions: at 10 µM
T3 sequence (whole entry): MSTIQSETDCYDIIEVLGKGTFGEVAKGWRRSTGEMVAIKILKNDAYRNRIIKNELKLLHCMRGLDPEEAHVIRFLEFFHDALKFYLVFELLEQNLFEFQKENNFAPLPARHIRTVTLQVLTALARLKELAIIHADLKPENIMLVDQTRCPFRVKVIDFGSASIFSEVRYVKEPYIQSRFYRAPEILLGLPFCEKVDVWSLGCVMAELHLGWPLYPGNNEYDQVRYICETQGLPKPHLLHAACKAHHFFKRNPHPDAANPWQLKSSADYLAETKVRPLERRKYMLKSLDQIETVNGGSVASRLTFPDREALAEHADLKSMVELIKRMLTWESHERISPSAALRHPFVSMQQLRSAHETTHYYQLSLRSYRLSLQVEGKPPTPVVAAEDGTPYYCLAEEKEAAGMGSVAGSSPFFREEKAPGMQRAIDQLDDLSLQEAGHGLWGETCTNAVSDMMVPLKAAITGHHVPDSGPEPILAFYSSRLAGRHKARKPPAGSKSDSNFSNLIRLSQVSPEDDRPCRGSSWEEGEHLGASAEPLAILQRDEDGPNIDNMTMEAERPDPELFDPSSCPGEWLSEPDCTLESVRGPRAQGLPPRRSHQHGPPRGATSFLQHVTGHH

[9] = biological target: Serine/threonine-protein kinase 25 (Homo sapiens) (UniProt O00506); test: Selectivity interaction (ActivX KiNativ screen (ex vivo kinase selectivity in human PBMCs)) EUB0001619a STK25; type: cell-based; conditions: PBMC, at 1 µM
Serine/threonine-protein kinase 25 (Homo sapiens), sequence (O00506 whole entry, looked up): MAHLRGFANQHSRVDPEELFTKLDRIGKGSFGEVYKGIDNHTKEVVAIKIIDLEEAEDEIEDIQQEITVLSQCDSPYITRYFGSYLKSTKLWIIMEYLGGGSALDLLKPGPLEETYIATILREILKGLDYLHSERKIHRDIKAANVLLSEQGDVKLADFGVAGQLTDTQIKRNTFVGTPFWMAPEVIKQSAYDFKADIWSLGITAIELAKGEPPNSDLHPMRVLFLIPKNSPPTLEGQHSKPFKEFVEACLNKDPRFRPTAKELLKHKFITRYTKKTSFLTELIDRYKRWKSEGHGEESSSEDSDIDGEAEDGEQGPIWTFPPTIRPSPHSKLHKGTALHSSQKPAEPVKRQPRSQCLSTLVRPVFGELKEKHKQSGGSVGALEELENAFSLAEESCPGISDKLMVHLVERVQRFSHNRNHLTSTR

[10] = biological target: MAP kinase-interacting serine/threonine-protein kinase 1 (Homo sapiens) (UniProt Q9BUB5); test: Selectivity interaction (KinomeScan (DiscoverX)) EUB0000607a MKNK1; conditions: at 10 µM
MAP kinase-interacting serine/threonine-protein kinase 1 (Homo sapiens), sequence (Q9BUB5 whole entry, looked up): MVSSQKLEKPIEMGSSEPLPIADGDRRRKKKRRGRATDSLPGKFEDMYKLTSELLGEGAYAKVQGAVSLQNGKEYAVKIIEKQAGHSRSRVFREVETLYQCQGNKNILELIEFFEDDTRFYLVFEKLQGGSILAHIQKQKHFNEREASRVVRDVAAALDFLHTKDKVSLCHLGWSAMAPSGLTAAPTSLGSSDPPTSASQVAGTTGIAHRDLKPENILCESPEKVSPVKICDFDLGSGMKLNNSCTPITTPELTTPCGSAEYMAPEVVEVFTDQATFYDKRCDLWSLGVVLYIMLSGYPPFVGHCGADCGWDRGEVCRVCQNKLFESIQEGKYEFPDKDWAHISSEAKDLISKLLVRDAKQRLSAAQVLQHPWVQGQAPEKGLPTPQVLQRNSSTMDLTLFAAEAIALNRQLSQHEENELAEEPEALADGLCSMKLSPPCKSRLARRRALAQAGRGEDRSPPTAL

[11] = biological target: cAMP-dependent protein kinase catalytic subunit alpha (Homo sapiens, UniProt P17612); test: Selectivity interaction (KinomeScan (DiscoverX)) EUB0000666a PRKACA; conditions: at 10 µM

Transient receptor potential cation channel subfamily M member 6 (Homo sapiens), sequence (Q9BX84 whole entry): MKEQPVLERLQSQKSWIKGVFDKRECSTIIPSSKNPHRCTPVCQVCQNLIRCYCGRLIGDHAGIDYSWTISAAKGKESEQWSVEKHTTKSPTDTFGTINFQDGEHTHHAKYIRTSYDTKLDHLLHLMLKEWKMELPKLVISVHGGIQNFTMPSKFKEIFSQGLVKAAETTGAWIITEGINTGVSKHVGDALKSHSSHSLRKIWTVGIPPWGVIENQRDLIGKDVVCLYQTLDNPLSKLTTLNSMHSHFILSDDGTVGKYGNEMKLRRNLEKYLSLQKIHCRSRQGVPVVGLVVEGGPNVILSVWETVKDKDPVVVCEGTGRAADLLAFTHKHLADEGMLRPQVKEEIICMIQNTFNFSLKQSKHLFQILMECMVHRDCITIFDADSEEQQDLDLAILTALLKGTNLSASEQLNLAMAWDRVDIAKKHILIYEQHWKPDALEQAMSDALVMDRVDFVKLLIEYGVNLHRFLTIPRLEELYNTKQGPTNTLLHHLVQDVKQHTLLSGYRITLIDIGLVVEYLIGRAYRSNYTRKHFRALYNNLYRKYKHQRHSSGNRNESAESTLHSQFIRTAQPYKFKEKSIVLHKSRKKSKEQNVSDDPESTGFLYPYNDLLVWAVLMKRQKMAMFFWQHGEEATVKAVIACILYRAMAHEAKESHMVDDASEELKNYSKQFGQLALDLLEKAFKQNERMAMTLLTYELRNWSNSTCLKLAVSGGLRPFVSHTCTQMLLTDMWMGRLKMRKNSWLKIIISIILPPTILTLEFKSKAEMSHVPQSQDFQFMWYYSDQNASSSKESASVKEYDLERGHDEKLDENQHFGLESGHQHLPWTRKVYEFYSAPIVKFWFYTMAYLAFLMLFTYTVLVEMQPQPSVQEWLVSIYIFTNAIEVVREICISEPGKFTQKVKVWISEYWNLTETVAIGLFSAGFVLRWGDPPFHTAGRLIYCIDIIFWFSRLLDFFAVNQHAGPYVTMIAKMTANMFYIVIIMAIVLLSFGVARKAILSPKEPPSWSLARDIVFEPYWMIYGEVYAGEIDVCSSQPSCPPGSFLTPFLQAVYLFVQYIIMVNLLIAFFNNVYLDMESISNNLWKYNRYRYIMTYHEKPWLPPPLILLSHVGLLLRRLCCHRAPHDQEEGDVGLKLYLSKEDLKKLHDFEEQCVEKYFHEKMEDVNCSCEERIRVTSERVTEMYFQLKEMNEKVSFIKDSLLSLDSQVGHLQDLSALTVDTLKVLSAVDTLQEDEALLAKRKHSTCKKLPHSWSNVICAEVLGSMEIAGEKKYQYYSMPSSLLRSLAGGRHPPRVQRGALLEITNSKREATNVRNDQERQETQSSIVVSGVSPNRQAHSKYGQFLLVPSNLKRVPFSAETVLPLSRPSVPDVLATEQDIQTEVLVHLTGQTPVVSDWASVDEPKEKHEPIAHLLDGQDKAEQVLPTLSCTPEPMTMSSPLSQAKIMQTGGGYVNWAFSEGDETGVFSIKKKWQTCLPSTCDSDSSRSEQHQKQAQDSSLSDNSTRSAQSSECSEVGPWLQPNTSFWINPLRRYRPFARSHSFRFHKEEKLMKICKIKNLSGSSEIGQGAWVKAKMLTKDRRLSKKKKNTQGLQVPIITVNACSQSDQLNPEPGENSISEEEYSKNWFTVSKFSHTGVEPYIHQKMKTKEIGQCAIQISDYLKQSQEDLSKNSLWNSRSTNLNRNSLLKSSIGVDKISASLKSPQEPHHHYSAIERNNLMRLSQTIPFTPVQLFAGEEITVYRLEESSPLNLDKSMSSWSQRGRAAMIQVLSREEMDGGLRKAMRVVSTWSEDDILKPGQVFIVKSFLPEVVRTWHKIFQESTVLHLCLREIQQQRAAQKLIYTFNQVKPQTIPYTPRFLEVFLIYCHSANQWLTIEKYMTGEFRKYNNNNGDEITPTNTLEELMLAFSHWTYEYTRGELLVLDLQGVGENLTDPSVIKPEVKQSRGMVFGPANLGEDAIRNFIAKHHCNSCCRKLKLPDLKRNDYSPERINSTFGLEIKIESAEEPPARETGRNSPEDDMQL

SMILES: CN(C)C/C=C/C(=O)Nc1ccc(C(=O)N2CCCC(Nc3ncc(Cl)c(-c4c[nH]c5ccccc45)n3)C2)cc1 (stereo unspecified)
% of control [1]: 88%

IC50 [2]: > 30 µM
SMILES: CCC(=O)N1CC[C@H](Nc2ncnc3c2CN(c2cnc(OC)c(C(F)(F)F)c2)CC3)C1 [LENIOLISIB]

% of control [3]: -0.279%
SMILES: Cn1cc(-n2cnc3c(NCc4nc5cc(Cl)c(Cl)cc5[nH]4)nc(N4CCOCC4)nc32)cn1

% of control [4]: 100%
SMILES: CCN(CC)CCCCNc1ncc2cc(-c3cc(OC)cc(OC)c3)c(NC(=O)NC(C)(C)C)nc2n1

SMILES: Nc1cnc(N2CCc3cc(S(=O)(=O)Nc4c(F)cc(Cl)cc4F)cc(N4CCCC4=O)c32)nc1 [TP-020n]
% of control [5]: 100%
% of control [6]: 81%

SMILES: CN(C)CCOc1ccc(-c2nc(-c3ccncc3)c(-c3ccc4c(c3)CC/C4=N\O)[nH]2)cc1
% of control [7]: 75%
% of control [8]: 18%

SMILES: N#Cc1cccc(-c2c[nH]c3ncnc(N4CCOCC4)c23)c1
% of inhibition [9]: 65%

SMILES: CNC(=O)Nc1ccc(-c2nc(N3CC4CCC(C3)O4)c3cnn(C4CCC5(CC4)OCCO5)c3n2)cc1
% of control [10]: 100%

SMILES: O=C(NOC[C@H](O)CO)c1ccc(F)c(F)c1Nc1ccc(I)cc1F
% of control [11]: 72%

From ChEMBL document CHEMBL5465560, “Selectivity Literature for EUbOPEN Chemogenomic Library” (2024)
